ChEMBL document CHEMBL1212923, “Synthesis and in vivo evaluation of phenethylpiperazine amides: selective 5-hydroxytryptamine(2A) receptor antagonists for the treatment of insomnia” (J Med Chem, 2010)
pKi: −log10 of the molar value.

What follows are compounds tested against 5-hydroxytryptamine receptor 2A (Homo sapiens, UniProt P28223) (assay: biochemical).
5-hydroxytryptamine receptor 2A, sequence (P28223 whole entry): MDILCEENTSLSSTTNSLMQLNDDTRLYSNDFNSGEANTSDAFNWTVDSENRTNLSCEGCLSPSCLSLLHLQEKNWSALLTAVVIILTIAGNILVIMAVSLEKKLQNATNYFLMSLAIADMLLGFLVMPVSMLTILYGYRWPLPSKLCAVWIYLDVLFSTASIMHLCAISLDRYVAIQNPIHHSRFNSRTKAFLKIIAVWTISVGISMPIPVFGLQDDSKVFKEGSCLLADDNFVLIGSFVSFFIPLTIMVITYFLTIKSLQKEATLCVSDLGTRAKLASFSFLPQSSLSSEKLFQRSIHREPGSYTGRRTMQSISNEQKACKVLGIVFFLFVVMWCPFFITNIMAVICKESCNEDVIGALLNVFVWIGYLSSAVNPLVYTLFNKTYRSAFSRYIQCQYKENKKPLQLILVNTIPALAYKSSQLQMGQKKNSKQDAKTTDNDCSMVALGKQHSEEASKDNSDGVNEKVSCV
Description: Displacement of [125I]DOI from human recombinant 5HT2A receptor expressed in HEK293 cells after 1 hr by scintillation counting

Q: With O=C(Nc1[nH]ncc1Br)N1CCN(CCc2ccc(F)cc2)CC1 as the compound, how does the pKi read?
A: 7.06

Q: How did the pKi turn out when COc1ccc(NC(=O)N2CCN(CCc3ccc(F)cc3)CC2)cc1-c1c(Cl)cnn1C was run?
A: 6.81

Q: With Cn1cc(C(F)(F)F)c(C(=O)N2CCN(CC(=O)c3ccc(F)cc3)CC2)n1 as the compound, how does the pKi read?
A: 7.55

Q: With N#Cc1c[nH]c2c(C(=O)N3CCN(CCc4ccc(F)cc4)CC3)cccc12 [PRUVANSERIN] as the compound, how does the pKi read?
A: 9.32

Q: How did the pKi turn out when Cn1cc(Br)c(C(=O)N2CCN(CC(=O)c3ccc(C(F)(F)F)cc3)CC2)n1 was run?
A: 6.06

Q: With O=C(CN1CCN(C(=O)c2n[nH]cc2Cl)CC1)c1ccc(F)cc1 as the compound, how does the pKi read?
A: 7.73

Q: Cc1cc(C(=O)N2CCN(CC(=O)c3ccc(F)cc3)CC2)[nH]n1 was tested. Which pKi did it give?
A: 7.44

Q: COc1ccc(CCN2CCN(C(=O)c3nn(C)cc3Br)CC2)cc1 was tested. Which pKi did it give?
A: 6.39

Q: Cn1cc(Br)c(C(=O)N2CCN(CCc3ccccc3)CC2)n1 was tested. Which pKi did it give?
A: 7.17

Q: With Cn1cc(Br)c(C(=O)N2CCN(CC(=O)c3ccccc3F)CC2)n1 as the compound, how does the pKi read?
A: 6.57

Q: How did the pKi turn out when Cn1cc(Br)c(C(=O)N2CCN(CCN3C(=O)c4ccccc4C3=O)CC2)n1 was run?
A: < 5.00

Q: With Cc1cc(C(=O)N2CCN(CC(=O)c3ccc(F)cc3)CC2)nn1C as the compound, how does the pKi read?
A: 8.07

Q: How did the pKi turn out when Cc1[nH]nc(C(=O)N2CCN(CC(=O)c3ccc(F)cc3)CC2)c1Br was run?
A: 8.34

Q: Cn1ccc(C(=O)N2CCN(CC(=O)c3ccc(F)cc3)CC2)n1 was tested. Which pKi did it give?
A: 7.43

Q: With Cn1cc(Br)c(C(=O)N2CCN(CCc3ccccc3F)CC2)n1 as the compound, how does the pKi read?
A: 7.74

Q: Cn1cc(Br)c(C(=O)N2CCN(CC(O)c3ccc(F)cc3)CC2)n1 (configuration not stated) was tested. Which pKi did it give?
A: 6.43

The compounds below were run against T1, 5-hydroxytryptamine receptor 2C (Homo sapiens, UniProt P28335) (assay: not given).
T1 sequence (P28335 whole entry): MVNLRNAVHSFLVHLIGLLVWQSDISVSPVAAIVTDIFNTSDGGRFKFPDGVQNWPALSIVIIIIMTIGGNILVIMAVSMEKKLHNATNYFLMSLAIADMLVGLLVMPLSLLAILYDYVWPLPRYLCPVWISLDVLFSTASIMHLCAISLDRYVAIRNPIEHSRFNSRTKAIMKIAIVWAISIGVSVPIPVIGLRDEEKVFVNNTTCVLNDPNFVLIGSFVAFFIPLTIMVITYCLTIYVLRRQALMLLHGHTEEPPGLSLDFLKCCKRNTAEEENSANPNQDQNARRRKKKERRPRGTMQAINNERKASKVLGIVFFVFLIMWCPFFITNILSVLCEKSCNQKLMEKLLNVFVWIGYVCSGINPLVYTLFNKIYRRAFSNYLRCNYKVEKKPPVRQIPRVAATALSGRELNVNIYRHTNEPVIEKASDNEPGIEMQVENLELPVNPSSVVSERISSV
Format: cell-based, HEK293

Q: How did the pKi turn out when O=C(Nc1[nH]ncc1Br)N1CCN(CCc2ccc(F)cc2)CC1 was run?
A: < 5.00

Q: With COc1ccc(NC(=O)N2CCN(CCc3ccc(F)cc3)CC2)cc1-c1c(Cl)cnn1C as the compound, how does the pKi read?
A: < 5.00

Q: With Cn1cc(C(F)(F)F)c(C(=O)N2CCN(CC(=O)c3ccc(F)cc3)CC2)n1 as the compound, how does the pKi read?
A: 5.41

Q: How did the pKi turn out when N#Cc1c[nH]c2c(C(=O)N3CCN(CCc4ccc(F)cc4)CC3)cccc12 [PRUVANSERIN] was run?
A: 6.19

Q: How did the pKi turn out when Cn1cc(Br)c(C(=O)N2CCN(CC(=O)c3ccc(C(F)(F)F)cc3)CC2)n1 was run?
A: < 5.00

Q: With O=C(CN1CCN(C(=O)c2n[nH]cc2Cl)CC1)c1ccc(F)cc1 as the compound, how does the pKi read?
A: 5.56

Q: How did the pKi turn out when Cc1cc(C(=O)N2CCN(CC(=O)c3ccc(F)cc3)CC2)[nH]n1 was run?
A: < 5.00

Q: How did the pKi turn out when COc1ccc(CCN2CCN(C(=O)c3nn(C)cc3Br)CC2)cc1 was run?
A: < 5.00

Q: How did the pKi turn out when Cn1cc(Br)c(C(=O)N2CCN(CCc3ccccc3)CC2)n1 was run?
A: < 5.00

Q: With Cn1cc(Br)c(C(=O)N2CCN(CC(=O)c3ccccc3F)CC2)n1 as the compound, how does the pKi read?
A: 5.01

Q: Cn1cc(Br)c(C(=O)N2CCN(CCN3C(=O)c4ccccc4C3=O)CC2)n1 was tested. Which pKi did it give?
A: < 5.00

Q: Cc1cc(C(=O)N2CCN(CC(=O)c3ccc(F)cc3)CC2)nn1C was tested. Which pKi did it give?
A: < 5.00

Q: Cc1[nH]nc(C(=O)N2CCN(CC(=O)c3ccc(F)cc3)CC2)c1Br was tested. Which pKi did it give?
A: 5.45

Q: With Cn1ccc(C(=O)N2CCN(CC(=O)c3ccc(F)cc3)CC2)n1 as the compound, how does the pKi read?
A: 5.85

Q: With Cn1cc(Br)c(C(=O)N2CCN(CCc3ccccc3F)CC2)n1 as the compound, how does the pKi read?
A: < 5.00

Q: How did the pKi turn out when Cn1cc(Br)c(C(=O)N2CCN(CC(O)c3ccc(F)cc3)CC2)n1 (configuration not stated) was run?
A: < 5.00
